# What was measured:
# [1] = system: wild-type mice; assay: Fear conditioning; type: in vivo, mouse; conditions: 2 mg/kg for 3 weeks
# Description: Morris water maze and the following fear conditioning were performed on C57BL/6J wild-type males aged 2.5 months. Mice were treatment- and test-naive before the treatment started. Treatment with Raphin1 started two weeks before and was continued during the behavioral tests.
# Testing was performed in polymodal operant chambers (Coulbourn Instruments, Allentown, PA, USA). Each chamber (18.5 × 18 × 21.5 cm) consisted of aluminum side walls and Plexiglas rear and front (the door) walls. A loudspeaker and a bright light constituted the sources of the cues during conditioning and cue-testing. The general activity of animals was recorded through the infrared cell placed at the ceiling of the chambers and was directly recorded using the Graphic State software (Coulbourn). For conditioning, mice were allowed to acclimate for 4 min, then a light/tone (10 kHz) – Conditioned Stimulus (CS) was presented for 20 s and co-terminated by a mild (1 s, 0.4 mA) footshock – an aversive Unconditioned Stimulus (US). Mice were returned to their home cages 2 min later. Testing was performed 24 hr following conditioning session. Testing for the context was performed in the morning. […] For both context and cue testing the percentage of time spent in the immobile position (% Freezing) was scored as an indicator of fear memory.
# [2] = target: T1, R15B (Homo sapiens, UniProt Q5SWA1); assay: R15B levels on immunoblots of HeLa cell lysates; type: cell-based; conditions: HeLa cells, Raphin1 10 μM
# T1 construct: endogenous in cells; host or cells: HeLa
# T1 sequence (Q5SWA1 1-713): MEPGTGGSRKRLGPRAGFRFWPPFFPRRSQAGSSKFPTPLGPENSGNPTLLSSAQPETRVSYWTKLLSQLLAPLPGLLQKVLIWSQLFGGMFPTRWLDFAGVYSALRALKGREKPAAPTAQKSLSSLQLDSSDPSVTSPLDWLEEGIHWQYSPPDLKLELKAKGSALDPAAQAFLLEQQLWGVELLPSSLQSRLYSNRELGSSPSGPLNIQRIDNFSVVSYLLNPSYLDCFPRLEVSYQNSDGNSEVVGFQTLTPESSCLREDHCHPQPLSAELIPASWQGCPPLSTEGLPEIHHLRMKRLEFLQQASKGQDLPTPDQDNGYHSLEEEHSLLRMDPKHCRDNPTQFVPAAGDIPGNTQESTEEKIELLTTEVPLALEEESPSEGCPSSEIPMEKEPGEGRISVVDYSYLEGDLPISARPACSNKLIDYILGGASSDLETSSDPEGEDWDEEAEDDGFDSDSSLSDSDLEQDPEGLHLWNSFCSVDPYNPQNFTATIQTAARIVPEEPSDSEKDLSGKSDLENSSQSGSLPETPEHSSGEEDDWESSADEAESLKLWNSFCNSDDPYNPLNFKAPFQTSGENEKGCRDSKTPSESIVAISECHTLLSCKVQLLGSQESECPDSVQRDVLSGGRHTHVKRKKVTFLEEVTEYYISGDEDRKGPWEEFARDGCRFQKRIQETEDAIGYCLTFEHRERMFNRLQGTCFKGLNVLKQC
# Description: HeLa or MEF cells (90,000 cells/mL) were plated in 12-well plates (1 mL/well). The following day cells were treated as indicated; the medium was removed, fresh medium containing compound added and incubated at 37°C for the times indicated. The time course was performed in reverse order to facilitate collecting all samples at the same time. At the end of treatment cells were washed two times with ice-cold PBS and lysed in 150 μL Laemmli Buffer. […] Proteins were transferred to the nitrocellulose membrane using the iBlot 2 system (ThermoFisher Scientific). Membrane was blocked in 5% skimmed milk for 30 min and then probed with primary antibodies followed by incubation with the appropriate horseradish peroxidase-conjugated secondary antibodies (Promega). Proteins were visualized using ECL Prime (GE Healthcare) and imaged in the Chemi-Smart 5000 (Vilber-Lourmat, France) or ChemiDoc Touch (BioRad). Bands were quantified using ImageJ (NIH, USA).
# [3] = system: R15a −/− cells; assay: eIF2α phosphorylation and translation rates in R15a −/− MEF cells; type: cell-based, mouse; conditions: R15a −/− cells (genetic inactivation of R15A), 10 μM
# Description: HeLa or MEF cells (90,000 cells/mL) were plated in 12-well plates (1 mL/well). The following day cells were treated as indicated; the medium was removed, fresh medium containing compound added and incubated at 37°C for the times indicated. The time course was performed in reverse order to facilitate collecting all samples at the same time. At the end of treatment cells were washed two times with ice-cold PBS and lysed in 150 μL Laemmli Buffer. Lysates were transferred to 1.5 mL eppendorf tubes, boiled at 95°C for 5 min, sonicated and resolved on Bolt SDS-PAGE 4%–12% Bis-Tris gels (ThermoFisher Scientific). Proteins were transferred to the nitrocellulose membrane using the iBlot 2 system (ThermoFisher Scientific). Membrane was blocked in 5% skimmed milk for 30 min and then probed with primary antibodies followed by incubation with the appropriate horseradish peroxidase-conjugated secondary antibodies (Promega). Proteins were visualized using ECL Prime (GE Healthcare) and imaged in the Chemi-Smart 5000 (Vilber-Lourmat, France) or ChemiDoc Touch (BioRad). Bands were quantified using ImageJ (NIH, USA). […]
# HeLa or MEF cells (90,000 cells/mL) were plated in 12-well plates (1 mL/well). […] The gels were then exposed to a Storage Phosphor Screen (GE Healthcare) and analyzed by phosphorimaging using a Typhoon Imager Scanner (GE Healthcare).
compound,measurement,setting,value
"[H]/N=C(\N)NN=Cc1cccc(Cl)c1Cl [Raphin1, (E)-2-(2,3-dichlorobenzylidene)hydrazine-1-carboximidamide]","Adverse effects on memory, fear-conditioning paradigm",[1],no adverse effects
same,R15B levels,[2],significantly decreased
same,Raphin1-induced eIF2α phosphorylation and translation attenuation,[3],persisted
